According to publication PMC4076017 (ACS Chemical Biology, 2014):
Several values for one entry are separate records, joined by “and”; a condition that tells them apart may be missing. Identical values can stand only once.

Legend:
[1] = target: T1, BaDHPS (Bacillus anthracis, UniProt Q81VW8); assay: biochemical
[2] = target: T2, SaDHPS (Staphylococcus aureus, UniProt O05701); assay: Michaelis-Menten kinetics in the presence of compound 11; format: biochemical; conditions: pABA 0 to 10 μM
[3] = target: T1, BaDHPS; assay: biochemical; format: binding
[4] = target: T3, YpDHPS (Yersinia pestis, UniProt A0A2S9PLG4); format: biochemical
T3 sequence (A0A2S9PLG4 1-277): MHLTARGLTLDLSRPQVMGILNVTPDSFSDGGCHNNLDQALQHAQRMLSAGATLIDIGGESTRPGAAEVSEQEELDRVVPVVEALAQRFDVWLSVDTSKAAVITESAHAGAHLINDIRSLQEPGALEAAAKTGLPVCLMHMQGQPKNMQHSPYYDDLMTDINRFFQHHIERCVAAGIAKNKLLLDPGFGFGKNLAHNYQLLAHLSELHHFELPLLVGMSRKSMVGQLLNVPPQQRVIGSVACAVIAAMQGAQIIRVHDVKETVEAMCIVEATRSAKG

[5] = LC-MS stability in conditions that recapitulate the crystallization conditions; format: physicochemical; conditions: conditions that recapitulate the crystallization conditions (pH and time)
[6] = Antimicrobial activity; format: cell-based
[7] = Aqueous solubility; format: physicochemical
[8] = target: T2, SaDHPS; assay: DHPS enzyme inhibition assay; format: biochemical
[9] = target: T3, YpDHPS; assay: biochemical
[10] = target: T1, BaDHPS; format: biochemical

T2 sequence (O05701 whole entry): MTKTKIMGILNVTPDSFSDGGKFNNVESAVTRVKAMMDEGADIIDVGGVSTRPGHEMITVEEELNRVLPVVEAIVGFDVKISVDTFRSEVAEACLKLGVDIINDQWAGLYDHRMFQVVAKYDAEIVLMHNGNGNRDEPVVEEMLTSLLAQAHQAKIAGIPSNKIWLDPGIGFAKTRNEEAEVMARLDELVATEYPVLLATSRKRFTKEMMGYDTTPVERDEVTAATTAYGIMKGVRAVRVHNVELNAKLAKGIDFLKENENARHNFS
T1 sequence (Q81VW8 1-280): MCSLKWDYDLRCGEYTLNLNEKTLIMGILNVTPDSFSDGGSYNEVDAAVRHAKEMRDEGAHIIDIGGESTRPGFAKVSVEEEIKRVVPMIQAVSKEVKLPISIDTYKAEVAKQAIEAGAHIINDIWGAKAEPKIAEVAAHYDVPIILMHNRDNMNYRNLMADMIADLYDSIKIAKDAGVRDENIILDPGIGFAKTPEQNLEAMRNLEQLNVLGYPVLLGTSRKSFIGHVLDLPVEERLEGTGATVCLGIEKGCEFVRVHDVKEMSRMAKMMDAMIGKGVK

Question: Which results are given for FC(F)(F)c1ccc(/C=N/Cc2ccc(C(F)(F)F)cc2)cc1 [Compound 11, (E)-N-(4-(Trifluoromethyl)benzylidene)-1-(4-(trifluoromethyl)phenyl) Methanamine]?
Answer: IC50 [1]: 50 µM; inhibition at 250 µM ([1]; read-out: inhibition of BaDHPS): 100%; Kmobs ([2]; 50 μM compd 11, DHPP 20 μM): 2.7 µM; Vmaxobs ([2]; 50 μM compd 11, DHPP 20 μM): 211.2 nM/min; Kmobs ([2]; 100 μM compd 11, DHPP 20 μM): 0.38 µM; Vmaxobs ([2]; 100 μM compd 11, DHPP 20 μM): 31.19 nM/min; Kd [3]: 130 ± 1 µM; increase in binding affinity of pABA to DHPS in the presence of 11 [3]: 2 fold; Kmobs [4]: 1.8 µM and 1.2 µM; stability by liquid chromatography-mass spectrometric analysis [5]: stable; antimicrobial activity [6]: lacks antimicrobial activity; aqueous solubility [7]: limited aqueous solubility; IC50 [8]: 17 µM; inhibition at 250 µM ([8]; read-out: inhibition of SaDHPS): 100%; IC50 [9]: 31 µM; inhibition at 250 µM ([9]; read-out: inhibition of YpDHPS): 100%; Kmobs [10]: 1.0 µM and 0.74 µM; Vmaxobs [10]: 106.7 nM/min and 70.81 nM/min
